Measurements as given in patent publication US20260263376A1, “THERAPEUTIC DELIVERY VECTORS COMPRISING AMPHIPHILIC BLOCK COPOLYMERS” (Swansea University, priority 2023, published 2026).

Experiments:
SKOV-3 WT = experiment: Endocytosis elucidation with chemical inhibitors prior to NP(DiD) treatment, flow cytometry; type: cell-based; details: inhibitor before NP treatment
Protocol: (§1) FIG. 19 NP(DiD) uptake following 24 h exposure in OVCAR-3 (a) and SKOV-3 (b). Uptake quantification measured using corrected total cell fluorescence method and plotted for 24 (c), 48 (d) and 72 h (e) NP(DiD) treatments. Endocytosis elucidation conducted using chemical inhibitors, prior to NP(DiD) treatments and cells analyzed using flow cytometry. Example of cell population positive for NP8 in SKOV-3 WT (f) and endocytosis pathway distribution graphs for OVCAR-3 WT (g) and SKOV-3 (h).
Internalization and quantification of nanoparticles was characterized using fluorescently labelled nanoparticles, Vybrant DiD™ loaded particles were fabricated (co-dissolution as previously described) followed by spin filtration to remove non-encapsulated dye. 2D Cell cultures were treated with NP(DiD) for 24, 48 and 72 h. […] Corrected total cell fluorescence (CTCF) was calculated.[36] Microtissue penetration was conducted using the same fluorescently labelled NPs. Spheroids (2×10^3 cells) were seeded 48 h prior to use, 10 spheroids per NP were treated for 24 h with 20 μL stock NP(DiD).[37] […] Data was visualized using MATLAB code form CellStream exports to create violin plots of total populations. […] Nanoparticle, cell counter staining and imaging all conducted as described above. Uptake thresholding into binary high and low uptake conditions was conducted using quantification histograms and manual identification of population peaks.

OVCAR-3 WT = experiment: as above; type: cell-based; details: inhibitor before NP treatment
Protocol: as §1
Internalization and quantification of nanoparticles was characterized using fluorescently labelled nanoparticles, Vybrant DiD™ loaded particles were fabricated (co-dissolution as previously described) followed by spin filtration to remove non-encapsulated dye. 2D Cell cultures were treated with NP(DiD) for 24, 48 and 72 h. 426 Cells were co-stained for nuclei using 16.2 μM Hoescht. Cells were imaged using CLSM or quantified following detachment using CellStream (A2 for DAPI channel, 428 B6 for DiD channel). Corrected total cell fluorescence (CTCF) was calculated.[36] Microtissue penetration was conducted using the same fluorescently labelled NPs. […] Uptake thresholding into binary high and low uptake conditions was conducted using quantification histograms and manual identification of population peaks.

Compound | increase in cell population positive for NPs (SKOV-3 WT) [%] | increase in mean florescence (SKOV-3 WT) | drop in fluorescence (OVCAR-3 WT) [%] | drop in fluorescence (SKOV-3 WT) [%]
CCN(CC)CCCC(C)Nc1ccnc2cc(Cl)ccc12 (stereo not shown) [chloroquine] | 3 | 3×10^5 |  | 
NAV 2729 |  |  | 90 | 90
